Assay results reported in publication PMC2559818 (BMC Clinical Pharmacology, 2008).
Several values for one entry are separate records, joined by “and”; a condition that tells them apart may be missing. Equal entries are not always repeated.

Experiments:
[1] = Effects of determinants on in vivo plasma Pt levels (NONMEM modelling)
Experimental: Additionally, serum creatinine was assessed at the time of study.
Possible relationships between determinants and Pt levels were evaluated using non-linear mixed effects modeling using NONMEM software (Version V1) (GloboMax LLC, Ellicott city, MD, USA). The first order conditional estimation method was used throughout. It was assumed that, due to the long follow-up, the treatment period was negligible compared to the follow-up time. The significance of established relationships was assessed using the likelihood ratio test.

[2] = Renal function (MDRD GFR) at chemotherapy and at follow-up; type: in vivo, human
Experimental: Differences between Pt levels of cisplatin and oxaliplatin treated patients, control cancer patients, and healthy controls were evaluated using the Mann-Whitney U test. The Wilcoxon signed rank test was used to test the difference between the renal function at the time of chemotherapy and at follow-up. Correlations between plasma and pUF level of Pt treated patients were evaluated by the Pearson correlation coefficient. SPSS was used to perform these tests.
Pt levels were proportional to the cumulative dose. […] An association between GSTT1,GSTM1, and GSTP1 genotypes and Pt levels could not be established. The effect of the renal function on Pt levels was evaluated using the glomerular filtration rate (GFR) which was calculated with the 'Modification of Diet in Renal Disease (MDRD)'-formula [21]. […] Figure 3 and 4 show the MDRD GFR for patients at the start of their chemotherapy treatment and at follow-up. […] Long-term plasma Pt concentrations were lower when the GFR at the time of chemotherapy was higher.

[3] = test system: calf thymus DNA; assay: Assessment of DNA binding activity of Pt in pUF (ex vivo incubation); conditions: for DNA binding of Pt in patient pUF samples: pUF of two treated patients per drug; for DNA binding of Pt in patient pUF samples / Added Pt bound to DNA: five-day incubation with calf thymus DNA; for Added Pt bound to DNA: parent compound added to pUF of healthy volunteers; for Total binding capacity of equivalent concentrations of parent compound recovered (average): patient pUF, more than 8 months after end of treatment
Experimental: The latter was done to assess the binding capacity of the parent compounds at concentrations in the same range as the patients samples. After a five-day incubation to achieve a maximal Pt-DNA binding, the DNA was precipitated, washed and dissolved in water as described by Brouwers et al. After hydrolysis, the Pt-DNA binding was assessed.

[4] = test system: plasma proteins; assay: Ex vivo activity of STS (release of Pt from plasma proteins); type: in vitro ADME, human; conditions: for Percentage of plasma Pt recovered in pUF after STS incubation: 750 μL plasma + 25 μL 250 g/L STS
Experimental: Therefore, 750 μL of plasma were incubated with 25 μL of a 250 g/L STS solution. As control, 750 μL of plasma were incubated with 25 μL of water. After incubation, pUF was prepared and Pt concentrations of the STS incubated samples and control samples were compared. Protein concentrations in the ultrafiltrates were analysed using a 2-D Quant Kit (GE healthcare Bio-Sciences AB, Uppsala, Sweden).

[5] = Long-term Pt levels in plasma ultrafiltrate (pUF) of treated patients (ICP-MS); type: in vivo, human; conditions: pUF prepared after sampling
Experimental: Whole blood samples for Pt analysis were collected in 10 mL EDTA containing tubes (Becton Dickinson Vacutainer Systems, Plymouth, UK). […] Plasma was obtained by centrifuging the whole blood samples for 15 min (1,000 g, 4°C). […] PUF was obtained by centrifuging the plasma fraction through 3 and 30 kDa cut-off ultrafiltrate filter (Centriplus Millipore Corporation, Bedford, MA, USA) for 30 min (1,000 g, 20°C). […] All samples were stored at -20°C until analysis.
Pt analyses were performed using an ICP-MS and a validated method described previously [15]. Pt levels were assessed in plasma, pUF, and bound to DNA in PBMCs.

[6] = Long-term Pt levels in plasma of treated patients (ICP-MS); type: in vivo; conditions: patients treated 8 to 75 months before
Experimental: Whole blood samples for Pt analysis were collected in 10 mL EDTA containing tubes (Becton Dickinson Vacutainer Systems, Plymouth, UK). EDTA was preferred above heparin because the fraction peripheral blood mononuclear cells (PBMCs) could be isolated easier from EDTA plasma. […] Plasma was obtained by centrifuging the whole blood samples for 15 min (1,000 g, 4°C). The fraction containing PBMCs was isolated from the whole blood sample using the method described by Pluim et al [13]. PUF was obtained by centrifuging the plasma fraction through 3 and 30 kDa cut-off ultrafiltrate filter (Centriplus Millipore Corporation, Bedford, MA, USA) for 30 min (1,000 g, 20°C). […] All samples were stored at -20°C until analysis.
Pt analyses were performed using an ICP-MS and a validated method described previously [15]. Pt levels were assessed in plasma, pUF, and bound to DNA in PBMCs. DNA was isolated from PBMCs using a method described by Pluim et al [13]. Before ICP-MS analysis, the DNA was hydrolysed in 1% (v/v) HNO3 solution at 70°C. The limit of quantification (LLOQ) of the method was 20 ng/L for plasma, 7.5 ng/L for pUF, and the absolute sensitivity for Pt bound to DNA was 0.75 pg Pt (7.5 fg Pt per μg DNA when using 100 μg DNA). The LLOQs were determined on the basis of five times the noise in blank matrix solutions.

[7] = test system: plasma proteins; assay: Ex vivo assessment of protein binding capacity of Pt in pUF (plasma storage); type: in vitro ADME, human
Experimental: Pt concentrations analysed in pUF prepared after storage were compared to Pt concentrations analysed in pUF which was prepared immediately after blood sampling. Additionally, plasma samples were reanalyzed to assess whether or not Pt concentrations in plasma were reduced during storage due to adsorption to the tubes.

[8] = individual patient plasma samples
[9] = two-compartment model, per compound
[10] = plasma stored at -30°C for 144-278 days

O=S([O-])([O-])=S.[Na+].[Na+] [STS, sodium thiosulfate]
Reduction in long-term plasma Pt levels ([1]; STS co-administration with intra-arterial cisplatin, p < 0.001): 71%

N.N.[Cl][Pt][Cl] [Cisplatin, cisplatin]
GFR at the time of the current study (follow-up) ([2]; in vivo): 55 mL/min/1.73 m^2
Median GFR before start of the Pt chemotherapy ([2]; in vivo): 78 mL/min/1.73 m^2
DNA binding of Pt in patient pUF samples [3]: 1.8% and 2.4%
Added Pt bound to DNA [3]: 21%
Total binding capacity of equivalent concentrations of parent compound recovered (average) [3]: 10%
Factor increase of Pt in pUF after STS incubation [4, 8]: 1.4-fold and 2.7-fold and 2.3-fold and 2.9-fold
Percentage of plasma Pt recovered in pUF after STS incubation [4, 8]: 17.5 and 34.9 and 30.7 and 36.6

O=C1[O][Pt]2([NH][C@@H]3CCCC[C@H]3[NH]2)[O]C1=O [Oxaliplatin, oxaliplatin]
GFR at the time of the current study (follow-up) ([2]; MDRD formula): 61 mL/min/1.73 m^2
Median GFR before start of the Pt chemotherapy ([2]; MDRD formula): 65 mL/min/1.73 m^2
First elimination half-life (t1/2) of plasma Pt [1, 9]: 1.37 months
Second elimination half-life (t1/2) of plasma Pt [1, 9]: 535 months
DNA binding of Pt in patient pUF samples [3]: 0.78% and 1.1%
Added Pt bound to DNA [3]: 21%
Total binding capacity of equivalent concentrations of parent compound recovered (average) [3]: 4.3%
Factor increase of Pt in pUF after STS incubation [4, 8]: 1.5-fold and 1.4-fold and 2.0-fold
Percentage of plasma Pt recovered in pUF after STS incubation [4, 8]: 40.4 and 46.2 and 39.5 and 38.7
Percentage of plasma Pt recovered in pUF ([4]; individual patient plasma samples, control incubation with water): 27.2 and 32.2 and 20 and 26.5
Increase in Pt pUF concentrations in samples prepared from STS treated plasma ([4]; over four samples per drug): 1.6 fold
Percentage of plasma Pt recovered in pUF (average) [5]: 24.2%
Plasma Pt levels relative to mean level of unexposed controls [6]: > 30 fold
Percentage of plasma Pt recovered in pUF after storage ([7]; individual patient samples, 144-278 days of storage at -30°C): 25.2 and 21.2 and 16 and 15.8
Percentage of plasma Pt recovered in pUF before storage ([7]; individual patient samples, pUF prepared immediately after blood sampling): 28.2 and 27.8 and 25.9 and 22.9
Decrease in Pt concentrations in pUF after storage (average) [7, 10]: 26%
Plasma Pt concentrations over storage time [7, 10]: remained constant over time
